The values below come from US12351580B2, “NLRP3 modulators” (Innate Tumor Immunity, Inc., priority 2017, dated 2025).

The target in this assay is T1, TLR8 (Homo sapiens, UniProt Q9NR97).
T1 construct: host or cells: HEK-Blue cells (human HEK) co-expressing TLR8 and an NF-kB/AP1-inducible SEAP reporter
T1 sequence (Q9NR97 27-1041): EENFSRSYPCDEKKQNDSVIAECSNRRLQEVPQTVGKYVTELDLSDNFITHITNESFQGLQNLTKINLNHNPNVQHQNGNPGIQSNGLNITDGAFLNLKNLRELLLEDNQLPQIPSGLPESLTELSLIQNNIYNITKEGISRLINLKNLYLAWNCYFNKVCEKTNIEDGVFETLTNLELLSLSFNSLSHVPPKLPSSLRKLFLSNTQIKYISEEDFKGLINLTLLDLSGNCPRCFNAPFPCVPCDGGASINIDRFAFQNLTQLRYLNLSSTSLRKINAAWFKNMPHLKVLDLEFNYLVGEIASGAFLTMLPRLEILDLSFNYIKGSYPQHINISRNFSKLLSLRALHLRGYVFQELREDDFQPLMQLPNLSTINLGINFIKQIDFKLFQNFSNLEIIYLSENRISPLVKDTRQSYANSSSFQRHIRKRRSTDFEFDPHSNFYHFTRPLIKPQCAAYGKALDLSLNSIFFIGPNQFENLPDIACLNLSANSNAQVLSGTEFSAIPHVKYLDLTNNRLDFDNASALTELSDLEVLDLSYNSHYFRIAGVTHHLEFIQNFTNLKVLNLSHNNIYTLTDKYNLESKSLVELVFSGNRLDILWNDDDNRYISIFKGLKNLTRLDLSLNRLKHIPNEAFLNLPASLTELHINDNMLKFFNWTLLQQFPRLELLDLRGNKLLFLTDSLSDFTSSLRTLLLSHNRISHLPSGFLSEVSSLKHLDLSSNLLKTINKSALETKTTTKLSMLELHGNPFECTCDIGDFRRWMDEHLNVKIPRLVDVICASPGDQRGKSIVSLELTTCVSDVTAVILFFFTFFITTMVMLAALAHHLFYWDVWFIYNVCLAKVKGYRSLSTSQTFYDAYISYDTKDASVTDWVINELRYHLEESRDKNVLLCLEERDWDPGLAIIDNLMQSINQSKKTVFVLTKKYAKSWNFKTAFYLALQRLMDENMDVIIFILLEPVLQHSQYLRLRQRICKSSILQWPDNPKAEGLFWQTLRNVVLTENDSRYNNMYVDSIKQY
Put plainly: In vitro human TLR8 binding reporter assay (HEK-Blue, NF-kB/AP1-inducible SEAP). The format is cell-based. The note with it: activity range symbols. The procedure, abridged:
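Reporter cells are plated at 15,000 per well and rested 24 h. Next day, test compounds or DMSO are dispensed, followed by 18 h incubation at 37 °C, 5% CO2.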
On the technique in general: A reporter such as luciferase makes a cellular process visible.

Broadly, the EC50 is the concentration needed to bring the measured effect to its halfway point. A low value points to a more potent agent. In the case of `CCC(=O)NCc1nc2c(N)nc3cc(-c4cc[nH]n4)ccc3c2[nH]1` [Compound 111], the EC50 was > 100 µM. Consider `CCN(Cc1nc2c(N)nc3cc(-c4cc[nH]n4)ccc3c2[nH]1)C(=O)c1nccs1` [Compound 114], for which the EC50 was > 100 µM.

`CN(Cc1nc2c(N)nc3cc(-c4cc[nH]n4)ccc3c2[nH]1)S(C)(=O)=O` [Compound 115]: the EC50 is > 100 µM. As for `CC(c1nc2c(N)nc3cc(-n4cccn4)ccc3c2[nH]1)N1CCCC1=O` (stereo not shown) [Compound 117], the EC50 is > 100 µM.

As to `CCN(Cc1nc2c(N)nc3cc(-c4cc[nH]n4)ccc3c2[nH]1)C(=O)C1CC1` [Compound 118], the EC50 is > 100 µM.

As to `Nc1nc2cc(-c3cccs3)ccc2c2[nH]c(CN3CCCC3=O)nc12` [Compound 309, 1-[(4-amino-7-thiophen-2-yl-1H-imidazo[4,5-c]quinolin-2-yl)methyl]pyrrolidin-2-one], the EC50 is > 100 µM. On to `N#Cc1ccccc1-c1ccc2c(c1)nc(N)c1nc(CN3CCCC3=O)[nH]c12` [Compound 315, 2-[4-amino-2-[(2-oxopyrrolidin-l-yl)methyl]-1H-imidazo[4,5-c]quinolin-7-yl]benzonitrile], for which the EC50 was > 100 µM. Turning to `Nc1nc2cc(Br)ccc2c2[nH]c(CN3CC(c4ccccc4)CC3=O)nc12` (stereo not shown) [Compound 316, 1-[(4-amino-7-bromo-1H-imidazo[4,5-c]quinolin-2-yl)methyl]-4-phenylpyrrolidin-2-one], the EC50 was > 100 µM. In the case of `COc1ncccc1-c1ccc2c(c1)nc(N)c1nc(CN3CCCC3=O)[nH]c12` [Compound 319, 1-[[4-amino-7-(2-methoxypyridin-3-yl)-1H-imidazo[4,5-c]quinolin-2-yl]methyl]pyrrolidin-2-one], the EC50 was > 100 µM. For `Nc1nc2cc(-c3cccnc3Cl)ccc2c2[nH]c(CN3CCCC3=O)nc12` [Compound 320, 1-[[4-amino-7-(2-chloropyridin-3-yl)-1H-imidazo[4,5-c]quinolin-2-yl]methyl]pyrrolidin-2-one] the value was > 100 µM; for `Nc1nc2cc(-c3cnccc3Cl)ccc2c2[nH]c(CN3CCCC3=O)nc12` [Compound 321, 1-[[4-amino-7-(4-chloropyridin-3-yl)-1H-imidazo[4,5-c]quinolin-2-yl]methyl]pyrrolidin-2-one], > 100 µM; for `Nc1nc2cc(-c3ccc(C(F)(F)F)nc3)ccc2c2[nH]c(CN3CCCC3=O)nc12` [Compound 324, 1-[[4-amino-746-(trifluoromethyppyridin-3-yl]-1H-imidazo[4,5-c]quinolin-2-yl]methyl]pyrrolidin-2-one], > 100 µM. On to `N#Cc1cncc(-c2ccc3c(c2)nc(N)c2nc(CN4CCCC4=O)[nH]c23)c1` [Compound 326, 5-[4-amino-2-[(2-oxopyrrolidin-l-yl)methyl]-1H-imidazo[4,5-c]quinolin-7-yl]pyridine-3-carbonitrile], for which the concentration giving a half-maximal response (EC50) was > 100 µM.

Consider `N#Cc1ccc(-c2ccc3c(c2)nc(N)c2nc(CN4CCCC4=O)[nH]c23)cn1` [Compound 327, 5-[4-amino-2-[(2-oxopyrrolidin-l-yl)methyl]-1H-imidazo[4,5-c]quinolin-7-yl]pyridine-2-carbonitrile], for which the EC50 is > 100 µM. For `Nc1nc2cc(-c3cncc(Cl)c3)ccc2c2[nH]c(CN3CCCC3=O)nc12` [Compound 328, 1-[[4-amino-7-(5-chloropyridin-3-yl)-1H-imidazo[4,5-c]quinolin-2-yl]methyl]pyrrolidin-2-one] the value was > 100 µM; for `Nc1nc2cc(-c3ccc(F)nc3)ccc2c2[nH]c(CN3CCCC3=O)nc12` [Compound 330, 1-[[4-amino-7-(6-fluoropyridin-3-yl)-1H-imidazo[4,5-c]quinolin-2-yl]methyl]pyrrolidin-2-one], > 100 µM; for `Nc1nc2cc(-c3cncc(F)c3)ccc2c2[nH]c(CN3CCCC3=O)nc12` [Compound 331, 1-[[4-amino-7-(5-fluoropyridin-3-yl)-1H-imidazo[4,5-c]quinolin-2-yl]methyl]pyrrolidin-2-one], > 100 µM. In the case of `Nc1nc2cc(C3CCCCCC3)ccc2c2[nH]c(CN3CCCC3=O)nc12` [Compound 332, 1-[(4-amino-7-cycloheptyl-1H-imidazo[4,5-c]quinolin-2-yl)methyl]pyrrolidin-2-one] it was > 100 µM; in that of `Nc1nc2cc(-c3cccnc3)ccc2c2[nH]c(CN3CC(c4ccccc4)CC3=O)nc12` (stereo not shown) [Compound 333, 1-[(4-amino-7-pyridin-3-yl-1H-imidazo[4,5-c]quinolin-2-yl)methyl]-4-phenylpyrrolidin-2-one], > 100 µM; in that of `COC(=O)CCCn1c(CN2CCCC2=O)nc2c(N)nc3ccccc3c21` [Compound 335], > 100 µM.

Regarding `CN(C)C(=O)CCCn1c(CN2CCCC2=O)nc2c(N)nc3cc(Cl)ccc3c21` [Compound 337], the EC50 was > 100 µM. For `CN(C)C(=O)CCCn1c(CN2CCCC2=O)nc2c(N)nc3cc(-c4cccnc4)ccc3c21` [Compound 340], the EC50 is > 100 µM. In the case of `COC(=O)CCCn1c(CN2CCCC2=O)nc2c(N)nc3cc(Br)ccc3c21` [Compound 341], the EC50 is > 100 µM.

Turning to `COC(=O)CCCn1c(CN2CCCC2=O)nc2c(N)nc3cc(-c4cccnc4)ccc3c21` [Compound 342], the EC50 is > 100 µM. Consider `Nc1nc2ccccc2c2[nH]c(CN3CCCCC3=O)nc12` [Compound 346], for which the EC50 was > 100 µM. In the case of `COC(=O)CCCn1c(CN2CCCCC2=O)nc2c(N)nc3ccccc3c21` [Compound 347] it was > 100 µM. As for `CN(C)Cc1nc2c(N)nc3cc(-c4cc[nH]n4)ccc3c2[nH]1` [Compound 348], the 50% effective concentration (EC50) was > 100 µM.

On to `CCN(C)Cc1nc2c(N)nc3cc(-c4cc[nH]n4)ccc3c2[nH]1` [Compound 349], for which the EC50 is > 100 µM.

Consider `Nc1nc2cc(-n3cccn3)ccc2c2[nH]c(CN3C[C@@H](c4ccccc4)CC3=O)nc12` [Compound 357], for which the EC50 was > 100 µM.

In the case of `Nc1nc2cc(-n3cccn3)ccc2c2[nH]c(CN3C[C@H](c4ccccc4)CC3=O)nc12` [Compound 358], the EC50 was > 100 µM. For the molecule `Nc1nc2cc(-c3cc[nH]n3)ccc2c2[nH]c(CN3C(=O)OCC3c3ccccc3)nc12` (stereo not shown) [Compound 363], the EC50 was > 100 µM. Consider `Nc1nc2cc(-c3cc[nH]n3)ccc2c2[nH]c(CN3CCOC3=O)nc12` [Compound 365], for which the EC50 is > 100 µM. For the molecule `CN1CCN(Cc2nc3c(N)nc4cc(-c5cc[nH]n5)ccc4c3[nH]2)C1=O` [Compound 368], the EC50 is > 100 µM. Consider `CN(Cc1nc2c(N)nc3cc(-c4cc[nH]n4)ccc3c2[nH]1)C(=O)CO` [Compound 370], for which the EC50 is > 100 µM. `CN(Cc1nc2c(N)nc3cc(-c4cc[nH]n4)ccc3c2[nH]1)C(=O)CN` [Compound 372]: the concentration giving a half-maximal response (EC50) was > 100 µM. For `CN(C)C(=O)N(C)Cc1nc2c(N)nc3cc(-c4cc[nH]n4)ccc3c2[nH]1` [Compound 375], the EC50 is > 100 µM. As to `CN(Cc1nc2c(N)nc3cc(-c4cc[nH]n4)ccc3c2[nH]1)C(=O)c1ccccc1` [Compound 376], the EC50 is > 100 µM. Turning to `CN(Cc1nc2c(N)nc3cc(-c4cc[nH]n4)ccc3c2[nH]1)C(=O)c1nccs1` [Compound 377], the EC50 is > 100 µM. In the case of `CCN(C=O)Cc1nc2c(N)nc3cc(-c4cc[nH]n4)ccc3c2[nH]1` [Compound 379] it was > 100 µM. On to `CCN(Cc1nc2c(N)nc3cc(-c4cc[nH]n4)ccc3c2[nH]1)C(=O)CN(C)C` [Compound 383], for which the EC50 is > 100 µM.
